Values of other authors as cited in patent publication US20230285554A1, “COMBINED MEDICATION FOR TREATING SOFT TISSUE SARCOMA” (CHIA TAI TIANQING PHARMACEUTICAL GROUP CO., LTD., priority 2020, published 2023).

Tested on: STS
Conditions: first-line chemotherapy

Q: With `O=P1(NCCCl)OCCCN1CCCl` (centres unmarked) [ifosfamide] as the compound, how does the efficacy in words read?
A: best efficacy

Q: Which efficacy in words does the source give for `COc1cccc2c1C(=O)c1c(O)c3c(c(O)c1C2=O)C[C@@](O)(C(=O)CO)C[C@@H]3O[C@H]1C[C@H](N)[C@H](O)[C@H](C)O1` [adriamycin] here?
A: best efficacy
